Laboratory results taken from patent US9290528B1, “Light-activated compounds” (University of Kentucky Research Foundation, priority 2013, dated 2016).
pIC50: −log10 of the molar value. “And” between values parts separate entries of the source, which are not always exact repeats. Equal values may be shown once. Read-outs that look alike come from different tables or passages of the source.

Columns and labels:
Log P = type: physicochemical
pUC19 plasmid DNA = pUC19 plasmid DNA damage by gel electrophoresis (Example 4); type: biochemical; details: 40 J/cm^2 >400 nm light
Protocol: Their DNA damaging properties were assessed with pUC19 plasmid DNA using gel electrophoresis. […] Samples were then incubated for 24 hours at room temperature protected from light. Controls were prepared to simulate single and double strand DNA breaks, and the DNA samples resolved on agarose gels. Samples were resolved using 1% agarose gels prepared in tris-acetate (TA) buffer. Each lane was loaded with 0.3 μg of pUC19 and the samples run for 90 minutes at […]. The gels were stained with 500 ng/mL ethidium bromide in TA buffer at room temperature for 40 minutes. […] In contrast, 10 is a more hydrophilic molecule, and the negatively charged sulfonate functional groups were anticipated to cause electrostatic repulsions between the complex and the negatively charged backbone of the DNA. DNA precipitation or smearing was not observed with up to 500 μM of […] (FIG. 12B).

HL60 cells [1] = assay: Cell viability as a function of time; type: cell-based, human; details: irradiated
HL60 cells [2] = assay: Mitochondrial membrane potential (TMRE); type: cell-based, human; details: dark and irradiated
Excerpt: FIGS. 14A to 14D includes charts showing mitochondrial potential and cell viability of HL60 cells as a function of time for (FIG. 14A) 9, dark, (FIG. 14B) 9, irradiated; (FIG. 14C) 10, dark; (FIG. 14D) 10, irradiated. TMRE was used to quantify membrane potential; values are relative to a no-compound control value of 100.
TMRE is a cationic dye that accumulates in active motochondria as a result of the negative membrane potential (Δψm).

A549 cells [3] = assay: Uptake and subcellular localization by Apoptome microscopy; type: cell-based, human
Protocol: The emission of 9 and 10 was measured in A549 cells using an Apoptome microscope. The relative rates of uptake of each of the complexes were analyzed as a function of time, and both 9 and 10 were visible inside cells as early as 2 hours after compound addition, consistent with the flow data and the ICP-OES results. Images were taken at 2, 8, 18 and 24 hours, and intracellular levels of both complexes appeared to plateau around 8 hours.
Differences in the intracellular localization of 9 and 10 were evaluated by determining colocalization of luminescence of the compound and fluorescent markers of organelles in A549 cells. Overlap in signals between the compounds, cellular nucleus, mitochondria and lysosome was measured over a 24 hour period.

HL60 cells [4] = assay: Western blot of PARP and caspase 3 cleavage; type: cell-based, human
Protocol: Given the different cellular localization properties and time profiles for cell death induced by 9 and 10, the mechanism of cell death was investigated. Indicators of apoptotic cell death (activation of PARP and caspase 3 through proteolysis) were determined in HL60 cells treated with either 9 or 10 (FIGS. 15A and 15B).
The generation of an alternate 55 kDa PARP fragment was determined by immunoblot as a marker for necrosis with 10% (v/v) ethanol used as a control that induces necrosis.

HL60 cells [5] = assay: Genomic DNA laddering by gel electrophoresis; type: cell-based, human; details: dark / not irradiated
Excerpt: To further analyze the mechanisms of cell death induced by 9 and 10, the degradation pattern of genomic DNA was investigated. DNA laddering was observed as a result of DNA fragmentation stemming from the execution phase of apoptosis. In contrast, necrotic cell death lacked this characteristic laddering effect, allowing differentiation between these two mechanisms. […] This laddering was absent in the cells treated with ethanol and compounds 9 and 10 in the dark. […] In contrast, given the cytotoxicity of 9 in the dark and the presence of the 55 kDa PARP fragment, it appears that necrotic cell death is one pathway for […]. For compound 10 the absence of DNA laddering may be a result of the lack of cytotoxicity of the negatively charged compound.

HL60 cells [6] = tested on: HL60 cells
HL60 cells [7] = tested on: HL60 cells; remark: listed apart in the source
[8] = Photoejection half-life of 8 in solvents; type: physicochemical; details: D2O vs H2O
Excerpt: The photochemical behaviour of 8 paralleled the photophysical characteristics of unstrained Ru^II complexes containing the dppz ligand.

calf thymus (CT) DNA = type: physicochemical; details: bovine
15 mer oligonucleotide A = type: physicochemical
Excerpt: (§1) The G-quadruplex sequence is [NT].

[9] = tested on: G-quadruplex [AGGG(TTAGGG)3]; type: physicochemical
Excerpt: as §1

CT DNA = assay: DNA binding affinity (Kb) with CT DNA; design: species or system calf; details: racemic mixtures
Excerpt: Intercalation of both complexes was consistent with the reduced mobility of supercoiled plasmid DNA in agarose gels, and the modulation of the absorption spectra in the presence of DNA, characterized by hypochromism of both the π-π* of the dppz ligand and the MLCT transitions, with maximal effect at a ratio of 2:1 DNA base pairs to metal center. Thus, the strained complex retained DNA-sensing capabilities of other Ru^II “light-switch” molecules and photochemical reactivity.

[10] = Light and dark cytotoxicity of exemplary compounds (Table 6); type: cell-based; details: for pIC50: cell line not stated; for Phototoxicity Index: dark IC50/light IC50
Excerpt: This Example describes additional specific embodiments the presently-disclosed subject matter. […] The methods for making and characterizing the compounds are based on the methodologies described in the previous examples.

pUC19 plasmid [11] = assay: Glutathione assay: pUC19 crosslinking with increasing GSH; type: biochemical; details: 30 μM compound, 0.01-40 mM GSH; 4 light-activated
Protocol: The concentrations of GSH were 0.01, 0.1, 1, 10, 40 mM, giving a molar ratio between the compounds and glutathione of a) 1:0.3, b) 1:3.3, c) 1:33, d) 1:333, e) 1:1333. […] Control reactions with pUC19 in the presence and absence of GSH were carried out for 12 hrs in the dark with 25 μg/ml plasmid and 40 mM GSH in 10 mM phosphate buffer, pH 7.5. The plasmid was resolved on a 1% agarose gel as described above.
(§2) The photoactivated DNA crosslinking Ru(bpy)2 species retained its ability to damage DNA, even at higher GSH concentrations.

[12] = Interaction of prodrug compounds with GSH by UV/Vis spectroscopy; type: physicochemical; details: period of days
Excerpt: as §2

[13] = tested on: HL60 promyelocytic leukemia cell line; assay: Cell survival assay, HL60; type: cell-based
Protocol: (§3) The HL60 promyelocytic leukemia cell line was obtained from ATCC and cultured in IMDM media (Invitrogen; Carlsbad, Calif.) supplemented with 10% serum supreme (Lonza; Basel, Switzerland) and penicillin/streptomycin at 37° C. with 5% CO2. The A549 cell line was donated and cultured in DMEM supplemented with glutamax, 10% serum supreme, and penicillin/streptomycin at 37° C. with 5% CO2. Cells were plated in Optimem (Life Technologies; Carlsbad, Calif.) supplemented with 1% serum supreme and penicillin/streptomycin at 30,000 cells per well in Costar 96 well flat bottom clear tissue culture treated plates for HL60 and 1500 cells/well for A549. […] The cells were then incubated for 72 hours followed by the addition of Cell Titer Glo (Promega; Madison, Wis.) to determine viability. Dark controls were run in parallel. The resulting luminescence was measured using the SpectraFluor Plus Plate Reader (Tecan). Data were fit to an equation for a sigmoidal dose response using the equation below, where yi and yf are the initial and final signal intensities.
(§4) Cell cytotoxicity studies were performed in HL60 leukemia cells and A549 lung cancer cells (see FIG. 7 and Table 3). Cells were incubated with compounds for 12 hours in the dark before irradiated with >450 nm light (410 W) for 3 minutes. Dark controls were run in parallel. Cell survival was quantified 72 hours later through the use of an ATP luciferase assay, and confirmed by Trypan Blue staining and manual counting.

A549 lung cancer cells = assay: Cell survival assay, A549 monolayer; type: cell-based
Protocol: as §3, §4

A549 tumor spheroids = assay: A549 tumor spheroid cytotoxicity; type: cell-based
Protocol: A549 cells were seeded at 2,500 cells/well in 1.5% agarose coated 96-well plates. After 7 days the spheroids were dosed with compounds and incubated for 12 hrs. […] Cellular viability was determined 72 hours after light activation for the irradiated samples and at the same time point for the dark samples by measuring ATP concentration with CellTiter Glo (Promega). Data were fit to an equation for sigmoidal dose response shown above using the Prism software package.
3D tumor spheroids were used to test the compounds. Spheroids provide a system that approximates the complexity of in vivo tumors. These spheroids mimic the pathophysiology of tumors, including hypoxic/necrotic regions, changes in cell shape, high proportions of quiescent cells, alterations in gene expression profiles, and diminished permeability to drugs. […] To characterize the light-activated ruthenium compounds under more challenging and biologically relevant conditions, efficacy was assessed in a 3D tumor model by forming tumor spheroids with A549 cells.
Spheroids of about 600 μm in diameter were dosed with compounds and then either kept in the dark or irradiated with >450 nm light for 3 minutes.

A549 cells [14] = assay: Glutathione assay in A549 cells (cytoprotection); type: cell-based; details: co-dosed with increasing GSH
Protocol: A549 cells were plated in Optimem supplemented with 1% serum supreme and penicillin/streptomycin in 96 well plates as described above. […] Cellular viability was determined by measuring ATP concentration with CellTiter Glo (Promega). Data were fit to an equation for sigmoidal dose response shown above using the Prism software package.

[15] = tested on: HL60 leukemia cells and A549 lung cancer cells; assay: Cell cytotoxicity studies, summary over HL60 and A549; type: cell-based
Protocol: as §3, §4

pUC19 plasmid [16] = assay: Plasmid-compound gel analysis (Example 2); details: visible light 200 W, 1 hour
Protocol: Plasmid-compound gel analysis: Plasmid pUC19 was obtained from Bio-Rad (Hercules, Calif.), transformed into DH5a cells and positive transformants were selected by colony formation on Ampicillin LB-Agar plates. Colonies were grown in LB and plasmid isolated using a Maxi-prep plasmid isolation kit (Qiagen; Velno, Netherlands). Plasmid amounts were quantified by UV/VIS. For dosing studies, 40 μg/ml of plasmid was incubated with compound dosed from 0 to 500 μM in 96 well plates. They were incubated for 30 min prior to light activation for 1 hour using a Dell 1410x 200 W projector fitted with a >450 nm cut-off filter. Dark controls were performed by keeping the DNA:compound mixtures in the dark. The samples were incubated overnight after light activation before gel analysis; the dark samples were also incubated for the same time period. Linear plasmid and relaxed circle plasmid were generated and run side-by-side with compound treated samples. Linear plasmid was generated using the EcoRI restriction enzyme (New England BioLabs; Ipswich, Mass.) following the manufacturers protocol. Single cut, relaxed circle, plasmid was generated using the copper phenanthroline reaction. Reaction was carried out in 10 mM phosphate buffer pH 7.5, with 40 μg/ml plasmid, 1 mM DTT, 1 mM hydrogen peroxide, and 5 μM copper phenanthroline for 30 min at 25° C. The addition of DTT reduced the copper phenanthroline to the +1 charge state, followed by reaction with peroxide created the damage to the DNA. Samples were resolved on a 1% non-EB (ethidium bromide) agarose gel followed by 40 minutes of staining with 0.5 μg/ml EB in Tris-Acetate buffer followed by 40 minutes of destaining in Tris-Acetate before imaging.

[17] = Photoejection followed by UV/Vis absorption spectroscopy (Example 2); details: >450 nm light
Protocol: Absorption spectra were obtained on an Agilent 8453 Diode Array spectrophotometer (Santa Clara, Calif.). Photoexpulsion experiments were performed using a Dell 200 Watt 1410X projector (for in vitro photoejection experiments) or 410 Watt 955 Model 900 AJH projector (for cell cytotoxicity studies) (Dell Inc.; Round Rock, Tex.) fitted with an Edmund Optics filter (NT43-935) (Barrington, N.J.). UV/Vis experiments were performed in a 1-cm pathlength quartz cuvette located 18 inches from the projector. Kinetics were fit using the equation for a single exponential with the Prism software package.

O=S(=O)([O-])c1ccc(-c2ccnc3c2ccc2c(-c4ccc(S(=O)(=O)[O-])cc4)ccnc23)cc1.O=S(=O)([O-])c1ccc(-c2ccnc3c2ccc2c(-c4ccc(S(=O)(=O)[O-])cc4)ccnc23)cc1.O=S(=O)([O-])c1ccc(-c2ccnc3c2ccc2c(-c4ccc(S(=O)(=O)[O-])cc4)ccnc23)cc1.[Ru+2] [Compound 10, Ru(bathophenanthorlinedisulfonate)3]
Log P (Log P): −2.2 ± 0.12
DNA damage when exposed to light (pUC19 plasmid DNA): induced single strand DNA breaks
cell viability (HL60 cells [1]; 2 hours): 70±12%
viable cells remaining (HL60 cells [1]; 24 hours): 70% and 59±4%
viable cells remaining (HL60 cells [1]; 48 hours): 55%
effect on mitochondrial potential (HL60 cells [2]): did not significantly reduce the mitochondrial potential
time at which intracellular levels plateau (A549 cells [3]): around 8 hours
PARP and caspase 3 activation (HL60 cells [4]; absence of light): did not display PARP or caspase 3 cleavage
PARP and caspase 3 activation (HL60 cells [4]; irradiated): induced PARP as early as 2 hours
55 kDa PARP fragment (marker for necrosis) (HL60 cells [4]; protected from light and irradiated): lower level of the 55 kDa PARP fragment
genomic DNA laddering (HL60 cells [5]): absent
increase of average emission of cells between 2 and 24 hours (HL60 cells [6]): 4 fold
amount within the cells after irradiation (HL60 cells [7]): 1.6%

Ru(bpy)2dmdppz [Compound 8]
isotope effect of ejection [8]: > 3.4
Half-life (calf thymus (CT) DNA): 41 ± 2 min
t1/2 values (calf thymus (CT) DNA): 31 to 41 min
Half-life (15 mer oligonucleotide A): 31 ± 0.5 min
Half-life [9]: 13.5 min
increase of photoejection rate compared to CT DNA ([9]; bound to G-quadruplex): 3 fold
Kb (CT DNA): 3e+07 M⁻¹
pIC50 ([10]; read-out: Dark IC50): 4.19
pIC50 ([10]; read-out: Light IC50): 4.85
Phototoxicity Index [10]: 4.6

Cc1cccc(-c2cccc(C)n2)n1.F[P-](F)(F)(F)(F)F.F[P-](F)(F)(F)(F)F.[Ru+2].c1ccc(-c2ccccn2)nc1.c1ccc(-c2ccccn2)nc1 [Compound 4, Ru(bpy)2-6,6′dmbpy]
plasmid DNA crosslinking in presence of increasing GSH (pUC19 plasmid [11]): greater DNA binding than cisplatin
interaction with GSH [12]: did not interact with GSH
pIC50 ([13]; 3 min >450 nm light, 72 hours, read-out: Light IC50 HL60): 5.80
pIC50 ([13]; dark, read-out: Dark IC50 HL60): < 3.52
Phototoxicity Index, PI HL60 ([13]; ratio of dark and light IC50): >188
pIC50 (A549 lung cancer cells; 3 min >450 nm light, 72 hours, read-out: Light IC50 A549): 5.96
pIC50 (A549 lung cancer cells; dark, read-out: Dark IC50 A549): 3.82
Phototoxicity Index, PI A549 (A549 lung cancer cells; ratio of dark and light IC50): 136
pIC50 (A549 tumor spheroids; 3 min >450 nm light, 72 hours, read-out: Light IC50 A549 spheroid): 4.68 and 4.67
pIC50 (A549 tumor spheroids; dark, read-out: Dark IC50 A549 spheroid): < 3.52
MCR Index (A549 tumor spheroids; ratio of spheroid and monolayer culture IC50): 19.4
effect of GSH on cytotoxicity (A549 cells [14]): not
activity light versus dark ([15]; >450 nm light 3 minutes vs dark): light-triggered toxicity
IC50 values after irradiation ([15]; after irradiation): single μM IC50 values
dark toxicity (none observed up to this concentration) ([15]; dark): > 300 µM
pIC50 ([10]; read-out: Dark IC50): 3.52
pIC50 ([10]; read-out: Light IC50): 5.82
Phototoxicity Index [10]: 200
type of DNA damage upon visible light (pUC19 plasmid [16]): DNA photobinding
reaction kinetics of 4 relative to 5 [17]: 30 fold
